Experimental data as given in patent US4985447A, “Certain benzoquinones, naphthoquinones and derivatives thereof which exhibit thromboxane A2 synthetase inhibition or receptor antagonism and the like” (Takeda Chemical Industries, Ltd., priority 1986, dated 1991).

How the values were obtained:
5-lipoxygenase = molecular target: T1, 5-lipoxygenase (Rattus norvegicus, UniProt P12527); assay: Inhibition of 5-lipoxygenase (production of 5-HETE in RBL-1 cells); assay type: cell-based, rat (RBL-1, rat basophilic leukemia cells); details: for inhibition at 1 µM: 10^-6 M; for inhibition at 0.1 µM: 10^-7 M
T1 construct: endogenous in cells; host or cells: RBL-1 cells (rat basophilic leukemia)
T1 sequence (P12527 1-673): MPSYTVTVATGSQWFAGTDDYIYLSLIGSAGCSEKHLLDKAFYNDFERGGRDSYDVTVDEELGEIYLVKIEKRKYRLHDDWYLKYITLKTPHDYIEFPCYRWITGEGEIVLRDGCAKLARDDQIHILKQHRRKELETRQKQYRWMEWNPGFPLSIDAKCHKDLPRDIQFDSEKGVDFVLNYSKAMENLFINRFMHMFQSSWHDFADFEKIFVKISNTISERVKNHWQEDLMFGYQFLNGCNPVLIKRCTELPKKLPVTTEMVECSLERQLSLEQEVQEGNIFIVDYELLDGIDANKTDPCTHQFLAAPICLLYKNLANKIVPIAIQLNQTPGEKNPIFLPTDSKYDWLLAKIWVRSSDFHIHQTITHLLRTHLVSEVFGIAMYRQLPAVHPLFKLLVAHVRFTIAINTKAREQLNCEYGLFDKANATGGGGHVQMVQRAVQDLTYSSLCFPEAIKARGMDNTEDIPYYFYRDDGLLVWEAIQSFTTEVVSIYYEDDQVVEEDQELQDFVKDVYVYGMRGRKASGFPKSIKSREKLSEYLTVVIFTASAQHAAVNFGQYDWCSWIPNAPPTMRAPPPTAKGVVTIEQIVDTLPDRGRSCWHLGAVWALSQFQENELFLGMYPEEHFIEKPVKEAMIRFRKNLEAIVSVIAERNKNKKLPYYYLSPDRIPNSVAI
Procedure: Inhibition of 5-lipoxygenase
10^7 RBL-1 cells (rat basophilic leukemia cells) were suspended in 0.5 ml of MCM (mast cell medium ). To the suspension was subsequently added a solution consisting of 0.5 ml of MCM, 50 μg of arachidonic acid, 10 μg of A-23187 (calcium ionophore, Eli Lilly), and a solution of a quinone compound in ethanol at the final concentration of 1 μM, 0.1 μM, 0.01 μM or 0.001 μM of the test compound was added and allowed to react at 37° C. for 20 minutes. After the reaction, 4 ml of ethanol containing 1,4-dimethoxy-2-methyl-3-(3-methoxypropyl)naphthalene as an internal standard were added, mixed well by shaking, and kept at room temperature for 10 minutes. Then the mixture was centrifuged for 10 minutes (2000 rpm), and the supernatant was separated. The supernatant was concentrated to dryness under reduced pressure. To the concentrate, 0.5 ml of 60% aqueous methanol was added. One hundred μl of this solution was subjected to high performance liquid chromatography for quantitative analysis of 5-HETE (5-hydroxyeicosatetraenoic acid). The amount of 5-HETE was analyzed by measurement of the absorbance at […] with a UV absorption monitor.
Inhibitory effect (IE) of production of 5-HETE is expressed by (1-b/a)×100, wherein a is the peak height or the area corrected with the peak due to the internal standard in the absence of the quinone compound, and b is the peak hight or peak area corrected with the peak due to the internal standard in the presence of the quinone compound.

[1] = Effect on occurrence of ventricular arrhythmia due to ischemia-reperfusion in rat; assay type: in vivo, rat (Sprague-Dawley); details: 30 mg/kg, p.o., rats showing abnormal function/rats used, during 10 minutes of reperfusion; for Incidence of ventricular fibrillation: **p<0.01 (X^2 test); for Incidence of cardiac arrest / Incidence of ventricular tachycardia: *p<0.05 (X^2 test)
Procedure: Procedure: The experiment was carried out in Sprague-Dawley rat (male, 11-12 weeks old) according to the method of A. S. Manning (Circ. Res. 55, 545, 1984). A rat was given orally a drug or water at the dose of 5 ml/kg, and anesthetized 1 hour later with pentobarbital (50 mg/kg, intraperitoneal injection). The rat was thoractomized under artificial respiration and the coronary left anterior descending artery was ligated for 5 minutes, followed by reperfusion for 10 minutes. The incidences of ventricular tachycardia, ventricular fibrillation and cardiac arrest observed for the 10 minutes of reperfusion were determined.

[2] = Effect on cerebral ischemic seizure in spontaneously hypertensive rat; assay type: in vivo; details: orally at 30 mg/kg
Procedure: Procedure: A spontaneously hypertensive rat (male, 20-23 weeks old) was given orally a compound or water at the dose of 5 ml/kg, and 1 hour later anesthetized with pentobarbital. Bilateral common carotid arteries were ligated, and the interval from immediately after the ligation to the occurrence of seizure (cramp, jumping, etc.) was measured.

[3] = molecular target: T2, Thromboxane A2 (TXA2) receptor (Oryctolagus cuniculus, UniProt Q6WQI8); assay: Thromboxane A2 (TXA2) receptor antagonism (rabbit aorta strip contraction by U-46619); details: for Inhibition of contraction of rabbit aorta strip due to U-46619: U-46619 10^-7 M, mean ± standard error, 6 cases
T2 construct: contraction by U-46619
T2 sequence (Q6WQI8 1-233): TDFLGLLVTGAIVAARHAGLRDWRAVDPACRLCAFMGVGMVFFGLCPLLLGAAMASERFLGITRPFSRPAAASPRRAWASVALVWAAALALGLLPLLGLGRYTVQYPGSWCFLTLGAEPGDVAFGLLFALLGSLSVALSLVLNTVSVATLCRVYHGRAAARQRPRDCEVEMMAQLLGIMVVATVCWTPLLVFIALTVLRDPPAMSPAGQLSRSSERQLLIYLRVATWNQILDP
Procedure: Thromboxane A2 (TXA2) receptor antagonism
Procedure: A spiral strip of the rabbit aorta (2-3 mm wide, about 3 cm long) was suspended in Krebs-Henseleit solution under the load of 2 g. The Krebs-Henseleit solution was saturated with a mixed gas of 95% O2 -5% CO2 and warmed at 37° C. Inhibition of the contraction of the vascular strip caused by a TXA2 mimic substance, U-46619* (10^-7 M), by pretreatment with Compound No.13 30 minutes before was studied.

Row | inhibition at 1 µM (5-lipoxygenase) [%] | inhibition at 0.1 µM (5-lipoxygenase) [%] | Inhibition of contraction of rabbit aorta strip due to U-46619 ([3]; 10^-5 M) [%] | Inhibition of contraction of rabbit aorta strip due to U-46619 ([3]; 10^-5 M, listed as Compound No.13) [%] | TXA2 receptor antagonism (in words) ([3]; 10^-6 M and 10^-5 M) | Inhibition of contraction of rabbit aorta strip due to U-46619 ([3]; 10^-6 M) [%] | Inhibition of contraction of rabbit aorta strip due to U-46619 ([3]; 10^-6 M, listed as Compound No.13) [%] | SMILES | Incidence of ventricular fibrillation [1] | Incidence of ventricular fibrillation ([1]; listed as Compound No.1) | Incidence of cardiac arrest [1] | Incidence of ventricular tachycardia [1] | Incidence of cardiac arrest ([1]; listed as Compound No.1) | Incidence of ventricular tachycardia ([1]; listed as Compound No.1) | Interval to the occurrence of cerebral ischemic seizure (in words) [2] | protective effect against cerebral ischemia (in words) [2]
1 | 84 | 46 | – | – | – | – | – | CC1=C(C)C(=O)C(C(C)c2cccnc2)=C(C)C1=O (centres unmarked) [Compound No. 1, 3,5,6-trimethyl-2-[1-(3-pyridyl)ethyl]-1,4-benzoquinone] | 3/8 | inhibited significantly | 1/8 | 6/8 | inhibited significantly | inhibited significantly | prolonged remarkably the interval to the occurrence of cerebral ischemic seizure | exerts protective effects against cerebral ischemia
2 | 64 | 16 | 86 ± 8 | 86 | remarkable TXA2 receptor antagonism | 14 ± 4 | 14 | CC1=C(C)C(=O)C(C(CCCCCC(=O)O)c2cccnc2)=C(C)C1=O (centres unmarked) [Compound No. 13, 7-(3-pyridyl)-7-(3,5,6-trimethyl-1,4-benzoquinon-2-yl)heptanoic acid] | – | – | – | – | – | – | – | –
